Where “and” joins values, the source holds several entries; their conditions need not be identical. Equal values may be shown once. Where a SMILES comes first, the peptide text is derived from it. Where no end group is shown, it is not given here. The star is where a group is joined. Biotin = O=C1N[C@H]2[C@H](CS[C@H]2CCCCC(=O)*)N1
Key:
[1] = tested on: shRNA containing the lambda nutR hairpin loop; experiment: Bio-KGF binding of shRNA on Ni-NTA plate, Ribogreen; settings: for Ribogreen Fluorescence: mean of eight readings
From the text: Peptide Bio-KGF binds shRNA: Bio-KGF peptide was synthesized by Genemed Synthesis, Inc. (S. San Francisco, Calif.) as a 40-mer containing an MBD sequence and an RNA-hairpin binding domain from the N-terminus of bacteriophage lambda N protein: Bio-KGF: (“N”-terminal biotin) . . . KGF YKK KQC RPS KGR KRG FCW AQT RRR ERR AEK QAQ WKA A . . . (“C” terminus) (SEQ ID NO: 11)
An shRNA designed to silence the human beclin gene was designed to include a hairpin sequence corresponding to the NutR box of bacteriophage lambda mRNA (the binding target for the Bio-KGF peptide) and was amplified using the Silencer™ siRNA
Various molar excess amounts of Bio-KGF (ranging from 63 pg to 2 ug per well; similar results were obtained across this range) were attached to a Ni-NTA plate (Qiagen Inc., Carlsbad, Calif. for 1 hour and blocked overnight with 3% BSA at 4 degrees C. in the refrigerator, and washed with PBS/Tween and TE buffers. RNA dilutions were added in TE buffer, incubated for 30 min on shaker, then for 30 min on bench at room temperature. After one wash with TE buffer, Ribogreen reagent (Ribogreen RNA Quantitation Reagent and Kit from Molecular Probes/Invitrogen) was added to the wells, incubated 5 minutes, and fluorescence was read on a fluorescent plate reader. The results are listed in Table 8 (each number is a mean of eight readings): […]

MOLT-4 = experiment: Cytotoxicity of MBD therapeutic peptides; type: cell-based, human; settings: relative to equal dose of control MBD peptide, only p < 0.05 shown, 1-4 experiments
From the text: (§1) Also, peptides such as NFKB and CSK are of interest, targeting stress-coping mechanisms such as inflammation. The breast cancer lines tested are HS578T, MX-1, MDA-MB231, MDA-MB435 and MCF7. Leukemia cell lines tested for cytotoxicity effects with these MBD-tagged peptides are CCRF-CEM, RPMI-8226 and MOLT-4. Overall, MCF-7 and CCRF-CEM yield the most consistent data and the strongest effect across the board (Table 12). In addition, elevated levels of cytotoxicity are observed when multiple peptides are combined while keeping the overall amount of peptide added constant. Cytotoxicity increases with the number of peptides added per cocktail and is further enhanced by combining peptide cocktail treatment with paclitaxel.

RPMI-8826 = experiment: Cytotoxicity of MBD therapeutic peptides; type: cell-based, human; settings: relative to equal dose of control MBD peptide, only p < 0.05 shown, 1-4 experiments
From the text: as §1

MCF-7 [2] = experiment: Cell survival, mutants of MDOKSH peptide; type: cell-based; set-up: CELL SURVIVAL, MCF-7: unit not given here; settings: for CELL SURVIVAL, MCF-7: expressed relative to the activity of the parental peptide MDOKSH
From the text: (§2) In order to maximize the effects of cytotoxic peptides, alanine scanning of one peptide (MDOKSH) was undertaken as an illustration. 48 mutants were synthesized, purified and tested in CCRF-CEM and MCF-7. The cytotoxicity of the 48 peptides was strongly correlated in the two cell line assay systems (r=0.606). […] The core MBD sequence may, if desired, be excluded from the region to be explored by mutagenesis, in order to expedite the experiment.

CCRF-CEM = experiment: Cell survival, mutants of MDOKSH peptide; type: cell-based; settings: for CELL SURVIVAL, CCRF-CEM: expressed relative to the activity of the parental peptide MDOKSH
From the text: as §2

cancer cells = experiment: Selective cytotoxicity, cancer cells versus normal counterparts; type: cell-based, human
From the text: as §1

MDA-MB231 = experiment: Cytotoxicity of MBD therapeutic peptides; type: cell-based, human; settings: relative to equal dose of control MBD peptide, only p < 0.05 shown, 1-4 experiments
From the text: as §1

MCF-7 [3] = experiment: Cytotoxicity of MBD therapeutic peptides; type: cell-based, human; settings: relative to equal dose of control MBD peptide, only p < 0.05 shown, 1-4 experiments
From the text: as §1

MDA-MB435 = experiment: Cytotoxicity of MBD therapeutic peptides; type: cell-based; settings: relative to equal dose of control MBD peptide, only p < 0.05 shown, 1-4 experiments
From the text: as §1

SR = experiment: Cytotoxicity of MBD therapeutic peptides; type: cell-based; settings: relative to equal dose of control MBD peptide, only p < 0.05 shown, 1-4 experiments

## KGF YKK KQC RPS KGR KRG FCW AQT RRR ERR AEK QAQ WKA A (Biotin-KGFYKKKQCRPSKGRKRGFCWAQTRRRERRAEKQAQWKAA; cysteine pairing not given here) [Bio-KGF]
[1]
  Binding of shRNA (in words): binds the shRNA
[1]; 2.7 ng shRNA per well
  Ribogreen Fluorescence: 853 ± 600
[1]; 5.5 ng shRNA per well
  Ribogreen Fluorescence: 2058 ± 781
[1]; 11 ng shRNA per well
  Ribogreen Fluorescence: 6016 ± 2977
[1]; 22 ng shRNA per well
  Ribogreen Fluorescence: 11924 ± 3650
[1]; 44 ng shRNA per well
  Ribogreen Fluorescence: 42053 ± 12769
[1]; 88 ng shRNA per well
  Ribogreen Fluorescence: 81819 ± 24656

## Biotin-KKGFYKKKQCRPSKGRKRGFCWARIDDMSSRIDDLEKNIADL (cysteines drawn unpaired) [M9HSBP1]
MOLT-4
  % viability @ 48 hr/25 ug/ml peptide, MOLT-4: 77.1 ± 20.3%
RPMI-8826
  % viability @ 48 hr/25 ug/ml peptide, RPMI-8826: 77.7 ± 5.2%

## CC(C)C[C@H](NC(=O)[C@H](C)NC(=O)[C@H](CCCCN)NC(=O)[C@H](Cc1c[nH]c2ccccc12)NC(=O)[C@H](CS)NC(=O)[C@H](Cc1ccccc1)NC(=O)CNC(=O)[C@H](CCCNC(=N)N)NC(=O)[C@H](CCCCN)NC(=O)[C@H](CCCNC(=N)N)NC(=O)CNC(=O)[C@H](CCCCN)NC(=O)[C@H](CO)NC(=O)[C@@H]1CCCN1C(=O)[C@H](CCCNC(=N)N)NC(=O)[C@H](CS)NC(=O)[C@H](CCC(N)=O)NC(=O)[C@H](CCCCN)NC(=O)[C@H](CCCCN)NC(=O)[C@H](CCCCN)NC(=O)[C@H](Cc1ccc(O)cc1)NC(=O)[C@H](Cc1ccccc1)NC(=O)CNC(=O)[C@H](CCCCN)NC(=O)[C@H](CCCCN)NC(=O)CCCC[C@@H]1SC[C@@H]2NC(=O)N[C@@H]21)C(=O)N[C@@H](Cc1ccc(O)cc1)C(=O)N[C@@H](Cc1c[nH]c2ccccc12)C(=O)N[C@@H](CC(=O)O)C(=O)N[C@@H](CC(C)C)C(=O)N[C@@H](Cc1ccc(O)cc1)C(=O)N[C@@H](CCC(=O)O)C(=O)O [Mutant 27] (Biotin-KKGFYKKKQCRPSKGRKRGFCWKALYWDLYE-OH)
MCF-7 [2]; MCF-7
  Cytotoxicity versus parental MDOKSH (in words): greatly enhanced cytotoxicity
CCRF-CEM; CCRF-CEM
  Cytotoxicity versus parental MDOKSH (in words): greatly enhanced cytotoxicity

## KKGFYKKKQCRPSKGRKRGFCWKPLYWDLYEM [Mutant 9]
MCF-7 [2]
  CELL SURVIVAL, MCF-7: 56.8 ± 8.1
CCRF-CEM
  CELL SURVIVAL, CCRF-CEM: 63.8 ± 4.6

## KKGFYKKKQCRPSKGRKRGFCWKPLYWDLYEI [Mutant 6]
MCF-7 [2]
  CELL SURVIVAL, MCF-7: 68.5 ± 6.5
CCRF-CEM
  CELL SURVIVAL, CCRF-CEM: 62.3 ± 5.0

## KKGFYKKKQCRPSKGRKRGFCWAPLYWDLYE [Mutant 28]
MCF-7 [2]
  CELL SURVIVAL, MCF-7: 52.7 ± 11.7
CCRF-CEM
  CELL SURVIVAL, CCRF-CEM: 60.1 ± 11.1

## KKGFYKKKQCRPSKGRKRGFCWKPLYWALYE [Mutant 23]
MCF-7 [2]
  CELL SURVIVAL, MCF-7: 58.8 ± 8.1
CCRF-CEM
  CELL SURVIVAL, CCRF-CEM: 74.5 ± 8.0

## CC[C@H](C)[C@H](NC(=O)[C@H](CC(=O)O)NC(=O)[C@H](CO)NC(=O)[C@H](Cc1ccccc1)NC(=O)[C@@H](NC(=O)[C@H](CCC(=O)O)NC(=O)CCCC[C@@H]1SC[C@@H]2NC(=O)N[C@@H]21)[C@@H](C)O)C(=O)N[C@@H](Cc1c[nH]c2ccccc12)C(=O)N[C@@H](CCCCN)C(=O)N[C@@H](CC(C)C)C(=O)N[C@@H](CC(C)C)C(=O)N[C@@H](CCCCN)C(=O)N[C@@H](CCCCN)C(=O)NCC(=O)N[C@@H](Cc1ccccc1)C(=O)N[C@@H](Cc1ccc(O)cc1)C(=O)N[C@@H](CCCCN)C(=O)N[C@@H](CCCCN)C(=O)N[C@@H](CCCCN)C(=O)N[C@@H](CCC(N)=O)C(=O)N[C@@H](CS)C(=O)N[C@@H](CCCNC(=N)N)C(=O)N1CCC[C@H]1C(=O)N[C@@H](CO)C(=O)N[C@@H](CCCCN)C(=O)NCC(=O)N[C@@H](CCCNC(=N)N)C(=O)N[C@@H](CCCCN)C(=O)N[C@@H](CCCNC(=N)N)C(=O)NCC(=O)N[C@@H](Cc1ccccc1)C(=O)N[C@@H](CS)C(=O)N[C@@H](Cc1c[nH]c2ccccc12)C(=O)O [PEP-3] (Biotin-ETFSDIWKLLKKGFYKKKQCRPSKGRKRGFCW-OH)
Cancer cells
  Cytotoxic effect on cancer cells versus normal counterparts (in words): strong cytotoxic effect on cancer cells but not their human counterparts
MDA-MB231
  % viability @ 48 hr/25 ug/ml peptide, MDA-MB231: 32.9 ± 1.7%
MCF-7 [3]
  % viability @ 48 hr/25 ug/ml peptide, MCF-7: 27.5 ± 15.2% and 30.6 ± 5.7% and 21.7 ± 1.5%
MOLT-4
  % viability @ 48 hr/25 ug/ml peptide, MOLT-4: 73.0 ± 5.5% and 58.3 ± 16.5%
MDA-MB435
  % viability @ 48 hr/25 ug/ml peptide, MDA-MB435: 16.0 ± 2.0% and 27.0 ± 3.9%
SR
  % viability @ 48 hr/25 ug/ml peptide, SR: 75.9 ± 15.7%

## CC(C)C[C@H](NC(=O)[C@H](CC(=O)O)NC(=O)[C@H](Cc1c[nH]c2ccccc12)NC(=O)[C@H](Cc1ccc(O)cc1)NC(=O)[C@H](CC(C)C)NC(=O)[C@@H]1CCCN1C(=O)[C@H](CCCCN)NC(=O)[C@H](Cc1c[nH]c2ccccc12)NC(=O)[C@H](CS)NC(=O)[C@H](Cc1ccccc1)NC(=O)CNC(=O)[C@H](CCCNC(=N)N)NC(=O)[C@H](CCCCN)NC(=O)[C@H](CCCNC(=N)N)NC(=O)CNC(=O)[C@H](CCCCN)NC(=O)[C@H](CO)NC(=O)[C@@H]1CCCN1C(=O)[C@H](CCCNC(=N)N)NC(=O)[C@H](CS)NC(=O)[C@H](CCC(N)=O)NC(=O)[C@H](CCCCN)NC(=O)[C@H](CCCCN)NC(=O)[C@H](CCCCN)NC(=O)[C@H](Cc1ccc(O)cc1)NC(=O)[C@H](Cc1ccccc1)NC(=O)CNC(=O)[C@H](CCCCN)NC(=O)[C@H](CCCCN)NC(=O)CCCC[C@@H]1SC[C@@H]2NC(=O)N[C@@H]21)C(=O)N[C@@H](Cc1ccc(O)cc1)C(=O)N[C@@H](CCC(=O)O)C(=O)O [MDOKSH] (Biotin-KKGFYKKKQCRPSKGRKRGFCWKPLYWDLYE-OH)
MCF-7 [2]
  CELL SURVIVAL, MCF-7: 100
CCRF-CEM
  CELL SURVIVAL, CCRF-CEM: 100

## AKGFYKKKQCRPSKGRKRGFCWKPLYWDLYE [Mutant 48]
MCF-7 [2]
  CELL SURVIVAL, MCF-7: 61.6 ± 3.1
CCRF-CEM
  CELL SURVIVAL, CCRF-CEM: 71.8 ± 10.7

## KKGFYKKKQCRPSKGRKRGFCWKPLYWDLYEP [Mutant 11]
MCF-7 [2]
  CELL SURVIVAL, MCF-7: 59.6 ± 10.7
CCRF-CEM
  CELL SURVIVAL, CCRF-CEM: 64.8 ± 7.2

## CC(C)C[C@H](NC(=O)[C@H](CC(C)C)NC(=O)[C@H](CCCCN)NC(=O)[C@H](Cc1c[nH]c2ccccc12)NC(=O)[C@H](CC(C)C)NC(=O)[C@H](CC(=O)O)NC(=O)[C@H](CO)NC(=O)[C@H](Cc1ccccc1)NC(=O)[C@@H](NC(=O)[C@H](CCC(=O)O)NC(=O)CCCC[C@@H]1SC[C@@H]2NC(=O)N[C@@H]21)[C@@H](C)O)C(=O)N[C@@H](CCCCN)C(=O)N[C@@H](CCCCN)C(=O)NCC(=O)N[C@@H](Cc1ccccc1)C(=O)N[C@@H](Cc1ccc(O)cc1)C(=O)N[C@@H](CCCCN)C(=O)N[C@@H](CCCCN)C(=O)N[C@@H](CCCCN)C(=O)N[C@@H](CCC(N)=O)C(=O)N[C@@H](CS)C(=O)N[C@@H](CCCNC(=N)N)C(=O)N1CCC[C@H]1C(=O)N[C@@H](CO)C(=O)N[C@@H](CCCCN)C(=O)NCC(=O)N[C@@H](CCCNC(=N)N)C(=O)N[C@@H](CCCCN)C(=O)N[C@@H](CCCNC(=N)N)C(=O)NCC(=O)N[C@@H](Cc1ccccc1)C(=O)N[C@@H](CS)C(=O)N[C@@H](Cc1c[nH]c2ccccc12)C(=O)O [PEP-1] (Biotin-ETFSDLWKLLKKGFYKKKQCRPSKGRKRGFCW-OH)
Cancer cells
  Cytotoxic effect on cancer cells versus normal counterparts (in words): strong cytotoxic effect on cancer cells but not their human counterparts
